# Earlier results in patent publication US20210177818A1, “Antibacterial Formulation for Treating and Prophylactic use in Bacterial, and Fungal Urinary Bladder Infections” (priority 2019, published 2021).
# Details: in acetone, acetic acid, or ethanol
smiles,measurement,value
"CCCCCCCCCCCCCCCC[n+]1ccccc1 [Cetylpyridinium chloride, 1-hexa-decyl pyridinium chloride]",solubility,insoluble
